Experimental data reported in patent publication US20240381872A1, “SUBSTITUTED 2,3-DIHYDRO[1,3]THIAZOLO[4,5-B]PYRIDINES, SALTS THEREOF AND THEIR USE AS HERBICIDALLY ACTIVE SUBSTANCES” (BAYER AKTIENGESELLSCHAFT, priority 2021, published 2024).

Columns and labels:
Type in all cases: in vivo
Setaria viridis (SETVI) = assay: Herbicidal pre-emergence action, section C (Table C8); conditions: visual grading after ca. 3 weeks
How it was run: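 Seeds sown in sandy loam and covered with soil; compounds formulated as WP or EC were sprayed onto the covering soil as aqueous suspension/emulsion with 0.5% additive at 600 l water/ha. Pots kept in greenhouse under optimum conditions; damage graded visually after ca. 3 weeks versus untreated controls (0–100%).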

[1] = tested on: Echinochloa crus-galli (ECHCG); assay: Herbicidal post-emergence action, section E (Table E5); conditions: application rate 320 g/ha, visual assessment ca. 3 weeks after spraying
Description: (§1) Seeds of mono- and dicotyledonous weed plants and crop plants were sown, in plastic or organic planting pots, in sandy loam, covered with soil and grown in a greenhouse under controlled growth conditions. 2 to 3 weeks after sowing, the test plants were sprayed in the single-leaf stage. The compounds according to the invention, formulated in form of wettable powders (WP) or as emulsifiable concentrates (EC), were sprayed onto the green plant parts as aqueous suspension or emulsion, with the addition of 0.5% of an additive, at an application rate of 600 l of water/ha (converted). The test plants were placed in the greenhouse for ca. 3 weeks under optimum growth conditions, and then the effect of the preparations was assessed visually in comparison with untreated controls (herbicidal effect in percent (%): 100% effect=plants have died off, 0% effect=as control plants).

[2] = tested on: Amaranthus retroflexus (AMARE); assay: Herbicidal post-emergence action, section E (Table E3); conditions: Amaranthus retroflexus, post-emergence, 504 h; application rate 320 g/ha; assessed visually after ca. 3 weeks; read-out: post-emergence activity against AMARE in %
Description: as §1

Lolium rigidum (LOLRI) [3] = assay: Herbicidal pre-emergence action, section C (Table C5); conditions: visual grading after ca. 3 weeks; for pre-emergence activity against LOLRI in %: application rate 320 g/ha
Description: (§2) Seeds of mono- and dicotyledonous weed plants and crop plants were sown, in plastic or organic planting pots, in sandy loam and covered with soil. The compounds according to the invention, formulated in the form of wettable powders (WP) or as emulsifiable concentrates (EC), were applied to the surface of the covering soil as aqueous suspension or emulsion, with the addition of 0.5% of an additive, at an application rate of 600 l of water/ha (converted). Following treatment, the pots were placed in a greenhouse and kept under optimum growth conditions for the test plants. The visual grading of the damage to the test plants was carried out after ca. 3 weeks in comparison to untreated controls (herbicidal effect in percent (%): 100% effect=plants have died off, 0% effect=as control plants).

[4] = tested on: Abutilon theophrasti (ABUTH); assay: Herbicidal pre-emergence action, section C (Table C1); conditions: application rate 320 g/ha, visual grading after ca. 3 weeks vs untreated controls
Description: as §2

[5] = tested on: Abutilon theophrasti (ABUTH); assay: Herbicidal post-emergence action, section E (Table E1); conditions: assessed visually after ca. 3 weeks
Description: as §1

[6] = tested on: Amaranthus retroflexus (AMARE); assay: Herbicidal pre-emergence action, section A (Table A11); conditions: application rate 320 g/ha
How it was run: (§3)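 In this greenhouse test, sown seeds under soil cover received the compounds as suspensions or emulsions, with 0.5% additive, at 600 l water/ha before emergence. Damage was assessed by eye after about 3 weeks, compared with untreated controls.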

[7] = tested on: Echinochloa crus-galli (ECHCG); assay: Herbicidal pre-emergence action, section A (Table A3); conditions: application rate 320 g/ha; visual grading after ca. 3 weeks vs untreated controls
How it was run: as §3

[8] = tested on: Amaranthus retroflexus (AMARE); assay: Herbicidal post-emergence action, section B (Table B11); conditions: application rate 320 g/ha; visual rating about 3 weeks after treatment vs untreated controls
How it was run: (§4)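 Potted weeds in sandy loam are treated post-emergence at the one-leaf stage, 2 to 3 weeks after sowing. The spray is an aqueous WP or EC preparation with 0.5% additive at 600 liters per hectare. Percent activity is assessed by eye after about 3 weeks versus untreated controls.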

[9] = tested on: Alopecurus myosuroides (ALOMY); assay: Herbicidal pre-emergence action, section A (Table A2); conditions: visual grading after ca. 3 weeks vs untreated controls
How it was run: as §3

[10] = tested on: Abutilon theophrasti (ABUTH); assay: Herbicidal pre-emergence action, section A (Table A1); conditions: application rate 1280 g/ha; visual grading after ca. 3 weeks vs untreated controls
How it was run: as §3

Lolium rigidum (LOLRI) [11] = assay: Herbicidal post-emergence action, section B (Table B5); conditions: visual rating about 3 weeks after treatment vs untreated controls
How it was run: as §4

Stellaria media (STEME) = assay: Herbicidal post-emergence action, section B (Table B9); conditions: visual rating about 3 weeks after treatment vs untreated controls
How it was run: as §4

Kochia scoparia (KCHSC) = assay: Herbicidal pre-emergence action, section A (Table A4); conditions: visual grading after ca. 3 weeks vs untreated controls
How it was run: as §3

Row | SMILES | post-emergence activity against ECHCG in % [1] [%] | post-emergence activity against ABUTH in % ([5]; application rate 320 g/ha) [%] | pre-emergence activity against AMARE in % [6] [%] | pre-emergence activity against LOLRI in % (Lolium rigidum (LOLRI) [3]) [%] | pre-emergence activity against ECHCG in % [7] [%] | post-emergence activity against AMARE in % [8] [%] | pre-emergence activity against ALOMY in % ([9]; application rate 1280 g/ha) [%] | pre-emergence activity against ABUTH in % [10] [%] | post-emergence activity against LOLRI in % (Lolium rigidum (LOLRI) [11]; application rate 1280 g/ha) [%] | pre-emergence activity against KCHSC in % (Kochia scoparia (KCHSC); application rate 320 g/ha) [%] | pre-emergence activity against SETVI in % (Setaria viridis (SETVI); application rate 80 g/ha) [%] | pre-emergence activity against ABUTH in % [4] [%] | post-emergence activity against STEME in % (Stellaria media (STEME); application rate 320 g/ha) [%] | other results
1 | Cc1cc2c(nc1-c1ccccc1Cl)NCS2 [Example I-049, 5-(2-chlorophenyl)-6-methyl-2,3-dihydro[1,3]thiazolo[4,5-b]pyridine] |  |  |  |  |  |  |  |  |  |  |  |  |  | pest or weed control at 80 g/ha (Setaria viridis (SETVI); Setaria viridis, pre-emergence, 504 h, application rate 80 g/ha, read-out: pre-emergence activity against SETVI in %): 100%; pest or weed control at 320 g/ha ([1]; Echinochloa crus-galli, 504 h, read-out: post-emergence activity against ECHCG in %): 80%; pest or weed control at 320 g/ha [2]: 90%; pest or weed control at 80 g/ha (Lolium rigidum (LOLRI) [3]; Lolium rigidum, pre-emergence, 504 h, application rate 80 g/ha, read-out: pre-emergence activity against LOLRI in %): 100%; pest or weed control at 320 g/ha ([4]; Abutilon theophrasti, pre-emergence, 504 h, read-out: pre-emergence activity against ABUTH in %): 80%
2 | Cc1cc2c(nc1-c1ccccc1F)N(S(=O)(=O)Cc1ccc(F)cc1)CS2 [Example I-122] | 90 | 80 | 90 | 100 | 100 | 90 | 100 | 90 | 90 | 90 |  |  |  | pre-emergence activity against SETVI in % (Setaria viridis (SETVI); application rate 320 g/ha): 100%; post-emergence activity against STEME in % (Stellaria media (STEME); application rate 1280 g/ha): 90%
3 | Cc1cc2c(nc1-c1ccccc1F)N(C(=O)C13CCCC1C(Cl)=NO3)CS2 (stereo not shown) [Example I-104] | 80 |  | 90 | 100 | 100 | 90 |  | 90 |  | 90 | 100 | 80 | 90 | post-emergence activity against ABUTH in % ([5]; application rate 80 g/ha): 80%; pre-emergence activity against ALOMY in % ([9]; application rate 320 g/ha): 90%; post-emergence activity against LOLRI in % (Lolium rigidum (LOLRI) [11]; application rate 320 g/ha): 90%
4 | Cc1cc2c(nc1-c1ccccc1)N(C(=O)C1(C)CC(Cl)=NO1)CS2 (stereo not shown) [Example I-088] |  | 90 | 90 |  | 100 | 90 | 100 |  | 90 |  | 100 | 90 | 90 | pre-emergence activity against KCHSC in % (Kochia scoparia (KCHSC); application rate 1280 g/ha): 90%
